Reference: PubChem BioAssay (NCI)
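48-hour exposure; five concentrations; linearly interpolated endpoints. Abbreviation: GI50, concentration required for 50% inhibition of growth. Definition used: TGI = concentration required for complete inhibition of growth.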

What was measured:
Assay in all cases: growth of human tumour cells (NCI), 48 h
[1] = system: NCI-H226 lung
[2] = system: HCT-116 colon
[3] = system: SF-268 CNS
[4] = system: 786-0 renal
[5] = system: SK-MEL-28 melanoma
[6] = system: EKVX NSCLC
[7] = system: UO-31 renal
[8] = system: OVCAR-8 ovarian
[9] = system: RPMI-8226 leukemia
[10] = system: SK-MEL-5 melanoma
[11] = system: KM12 colon
[12] = system: T-47D breast
[13] = system: RXF 393 renal
[14] = system: IGROV1 ovarian
[15] = system: SNB-19 CNS
[16] = system: U251 CNS
[17] = system: SK-OV-3 ovarian
[18] = system: NCI-H23 lung
[19] = system: OVCAR-3 ovarian
[20] = system: M14 melanoma
[21] = system: HOP-92 NSCLC
[22] = system: ACHN renal
[23] = system: HOP-62 NSCLC
[24] = system: UACC-257 melanoma
[25] = system: OVCAR-5 ovarian
[26] = system: A549 NSCLC
[27] = system: SF-295 CNS
[28] = system: HCC-2998 colon
[29] = system: NCI-H460 lung
[30] = system: OVCAR-4 ovarian
[31] = system: MALME-3M melanoma
[32] = system: SNB-75 CNS
[33] = system: SK-MEL-2 melanoma
[34] = system: NCI/ADR-RES ovarian
[35] = system: DU-145 prostate
[36] = system: TK-10 renal
[37] = system: HT29 colon
[38] = system: SR leukemia
[39] = system: A498 renal
[40] = system: UACC-62 melanoma
[41] = system: MDA-MB-435
[42] = system: NCI-H522 lung
[43] = system: COLO 205 colon
[44] = system: HCT-15 colon
[45] = system: MDA-MB-231 breast
[46] = system: SW-620 colon
[47] = system: MCF7 breast
[48] = system: MOLT-4 leukemia
[49] = system: HS 578T breast
[50] = system: CAKI-1 renal
[51] = system: SF-539 CNS
[52] = system: PC-3 prostate
[53] = system: SN12C renal
[54] = system: LOX IMVI melanoma

O=[N+]([O-])c1cc(O)c(O)cc1-c1cn2ccsc2n1
GI50 [1]: 76.7 µM | TGI [1]: > 100 µM | GI50 [2]: 31.1 µM | TGI [2]: > 100 µM | GI50 [3]: 66.1 µM | TGI [3]: > 100 µM | GI50 [4]: 31 µM | TGI [4]: > 100 µM | GI50 [5]: 55.5 µM | TGI [5]: > 100 µM | GI50 [6]: > 100 µM | TGI [6]: > 100 µM | GI50 [7]: 34.1 µM | TGI [7]: > 100 µM | GI50 [8]: 52.5 µM | TGI [8]: > 100 µM | GI50 [9]: 54.6 µM | TGI [9]: > 100 µM | GI50 [10]: 16.3 µM | TGI [10]: 54.8 µM | GI50 [11]: 40.4 µM | TGI [11]: > 100 µM | GI50 [12]: > 100 µM | TGI [12]: > 100 µM | GI50 [13]: > 100 µM | TGI [13]: > 100 µM | GI50 [14]: 32.4 µM | TGI [14]: > 100 µM | GI50 [15]: 91.1 µM | TGI [15]: > 100 µM | GI50 [16]: 77.1 µM | TGI [16]: > 100 µM | GI50 [17]: > 100 µM | TGI [17]: > 100 µM | GI50 [18]: 67.5 µM | TGI [18]: > 100 µM | GI50 [19]: 23.6 µM | TGI [19]: 64 µM | GI50 [20]: 20 µM | TGI [20]: 57.7 µM | GI50 [21]: 97.2 µM | TGI [21]: > 100 µM | GI50 [22]: 42.6 µM | TGI [22]: > 100 µM | GI50 [23]: 36.1 µM | TGI [23]: > 100 µM | GI50 [24]: > 100 µM | TGI [24]: > 100 µM | GI50 [25]: > 100 µM | TGI [25]: > 100 µM | GI50 [26]: 41.3 µM | TGI [26]: > 100 µM | GI50 [27]: 31.2 µM | TGI [27]: 91.3 µM | GI50 [28]: 43.7 µM | TGI [28]: > 100 µM | GI50 [29]: 46.9 µM | TGI [29]: > 100 µM | GI50 [30]: 69.7 µM | TGI [30]: > 100 µM | GI50 [31]: > 100 µM | TGI [31]: > 100 µM | GI50 [32]: > 100 µM | TGI [32]: > 100 µM | GI50 [33]: 57.1 µM | TGI [33]: > 100 µM | GI50 [34]: 50.6 µM | TGI [34]: > 100 µM | GI50 [35]: 17.2 µM | TGI [35]: > 100 µM | GI50 [36]: 66.5 µM | TGI [36]: > 100 µM | GI50 [37]: 28.7 µM | TGI [37]: > 100 µM | GI50 [38]: 41.3 µM | TGI [38]: > 100 µM | GI50 [39]: 25.3 µM | TGI [39]: 62.3 µM | GI50 [40]: 54.2 µM | TGI [40]: > 100 µM | GI50 [41]: 47.3 µM | TGI [41]: > 100 µM | GI50 [42]: 33 µM | TGI [42]: > 100 µM | GI50 [43]: 75.2 µM | TGI [43]: > 100 µM | GI50 [44]: 38.5 µM | TGI [44]: > 100 µM | GI50 [45]: 59.2 µM | TGI [45]: > 100 µM | GI50 [46]: 45.6 µM | TGI [46]: > 100 µM | GI50 [47]: 52.7 µM | TGI [47]: > 100 µM | GI50 [48]: 75.9 µM | TGI [48]: > 100 µM | TGI [49]: 36 µM | GI50 [50]: 38.4 µM | TGI [50]: > 100 µM | GI50 [51]: 71.1 µM | TGI [51]: > 100 µM | GI50 [52]: 63.4 µM | TGI [52]: > 100 µM | GI50 [53]: 85.6 µM | TGI [53]: > 100 µM | GI50 [54]: 52 µM | TGI [54]: > 100 µM
